Source: patent US9132131B2, “Use of adenosine A3 receptor agonists for treatment of neuropathic pain” (Saint Louis University, priority 2011, dated 2015)
Where “and” joins values, the source holds several entries; their conditions need not be identical. Identical values can stand only once. Like-named read-outs stand apart in the source and are kept apart here.

Assays:
[1] = tested on: CCI of the sciatic nerve (mechano-allodynia); assay: CCI model of neuropathic pain, mechano-allodynia (von Frey PWT); format: in vivo, mice; conditions: for effect of antagonist pretreatment on anti-allodynic effect of CI-IB-MECA or MRS1898: 15 min before CI-IB-MECA 0.6 or MRS1898 0.5 μmol/kg, DPCPX and SCH-442416 with MRS1898 only; for effect of antagonist pretreatment on anti-allodynic effect of IB-MECA: 15 min before IB-MECA 0.5 μmol/kg, MRS1523 5, DPCPX 2, SCH-442416 0.2 μmol/kg; for effect of antagonist given alone on ipsilateral or contralateral PWT / increase of potency by IB-MECA: D7; for effect of antagonist given alone on ipsilateral or contralateral PWT: MRS1523 5, DPCPX 2, SCH-442416 0.2, naloxone 25 μmol/kg; for efficacy of IB-MECA compared with this drug: D7, time of peak reversal (FIG. 7); for effect on PWT in contralateral paws / ED50 at peak reversal of mechano-allodynia when combined with IB-MECA: D7 after CCI; for effect on PWT in contralateral paws: drug alone; for ED50: Mus musculus, read-out: ED50, reversal of mechano-allodynia; for time of maximal reversal of mechano-allodynia: after single administration on D7; for increase of potency by IB-MECA: co-administered IB-MECA 0.2 μmol/kg; for ED50 at peak reversal of mechano-allodynia when combined with IB-MECA: mice, co-administered with IB-MECA 0.2 μmol/kg; for fold less potent than IB-MECA in reversing mechano-allodynia: ratio of ED50 values, D7, time of peak reversal; for reversal of mechano-allodynia in ipsilateral paws: single dose D7, IB-MECA 0.2-2, CI-IB-MECA 0.6, MRS1898 0.5 μmol/kg i.p., morphine 0.11-35 s.c., gabapentin 18-584 i.p., amitriptyline 3-191 μmol/kg oral
Method: CCI model of neuropathic pain. CCI to the sciatic nerve of the left hind leg in mice was performed under general anaesthesia using the well-characterized Bennett model. Briefly, mice (weighing 25-30 g at the time of surgery) were anesthetized with 3% isoflurane/100% O2 inhalation and maintained on 2% isoflurane/100% O2 for the duration of surgery. The left thigh was shaved, scrubbed with Nolvasan® and a small incision (1-1.5 cm in length) was made in the middle of the lateral aspect of the left thigh to expose the sciatic nerve. The nerve was loosely ligated around the entire diameter of the nerve at three distinct sites (spaced 1 mm apart) using silk sutures (6.0). The surgical site was closed with a single muscle suture and a skin clip. Pilot studies established that under our experimental conditions peak mechano-allodynia develops by day 5-day 7 (D5-D7) following CCI. Test substances or their vehicles were given subcutaneously (s.c.), intraperitoneally (i.p.) or orally by gavage (0.1 ml) at peak mechano-allodynia (D7).
Behavioral testing. […] The plantar aspect of hindpaws were probed three times with calibrated von Frey filaments (Stoelting, mice: 0.07-2.00 grams; rats: 0.407-26 grams) according to the “up-and-down” method. […] Briefly, each rat was placed in a Plexiglas chamber (28×40×35-cm, wire mesh floor) and after its acclimation, a servo-controlled mechanical stimulus was applied to the plantar surface that exerted a progressively increasing punctate pressure up to 50 grams within 10 seconds. Mechanical threshold was assessed three times at each time point to yield a mean value, reported as PWT (grams). […] Mechano-hyperalgesia was assessed in rats by the Randall and Sellitto paw pressure test using an analgesiometer (Ugo Basile). The nociceptive threshold was defined as the force (grams) at which the rat withdrew its paw (cut off set at 250 grams).
Determining ED50 values. Dose response data were curve-fitted using the least sum of square method by a normalized 4-parameter, variable slope non-linear analysis of the % Reversal of Mechano-allodynia in CCI and % Prevention of Mechano-allodynia or Mechano-hyperalgesia in CIPN using GraphPad Prism (Release 5.03, GraphPad Software, Inc.) from which the ED50 was determined and reported with the 95% confidence interval (95% CI). In the CCI model, the % Reversal of Mechano-allodynia=(PWT1h−PWTD7)/(PWTD0−PWTD7)×100, where PWTD0=Paw Withdrawal Threshold (g) at D0, PWT1h=Paw Withdrawal Threshold (g) at 1 hour after the administration of IB-MECA, gabapentin, amitriptyline, or combinations of IB-MECA with gabapentin or amitriptyline, and PWTD7=Paw Withdrawal Threshold (grams) at D7 prior to drug administration.
Statistical Analysis. Data are expressed as mean±SD for n animals. Behavioral data were analyzed by two-way repeated measures ANOVA with Bonferroni comparisons (full time course studies) or one-way ANOVA Dunnett's comparisons (1 hour behavioral data). The dose response curves were compared to a globally fitted curve using the extra sum-of-squares F-test comparisons to determine whether the data represented distinct curves between treatments. Significant differences were defined at a P<0.05. All statistical analysis was performed using GraphPad Prism (v5.03, GraphPad Software, Inc.).

[2] = tested on: paclitaxel-induced neuropathic pain; assay: Paclitaxel-induced neuropathic pain (mechano-allodynia, mechano-hyperalgesia); format: in vivo, rats
A3ARs = conditions: cited from earlier work
[3] = cited from earlier work
[4] = tested on: SKBR3 breast cancer cells; assay: MTT cell survival assay, SKBR3; format: cell-based, human; conditions: 48 hours, MTT, SKBR3
Method: Cells were cultured and assayed in DMEM (SKBR3; human breast cancer cells), L15 (SW480; human colon cancer cells) or RPMI […] (RPMI 8226; human multiple myeloma cells) supplemented with heat-denatured 10% FBS and penicillin/streptomycin at 37° C., 0% (SW480) or 5% CO2 (SKBR3 and RPMI 8226), 95% humidity. The antitumor activities of these agents were measured in cells (6.25×10^4 cells/well) cultured overnight in 24-well plates (SKBR3 and SW480; BD Biosciences) or 12 mm×7.5 mm culture tubes (RPMI 8226; BD Biosciences) in complete media. […] Two naïve control wells were included as a control for 100% survival. Cell survival was determined using a MTT (3-(4,5-dimethylthiazol-2-yl)-2,5-diphenyltetrazolium bromide) assay adapted from a previously described assay. Cells were incubated with MTT (500 μg/ml) for 75 minutes at 37° C., 0% or 5% CO2, 95% humidity, removing the media and dissolving the tetrazolium crystals in isopropanol. […] The antitumor effects of IB-MECA alone were determined as % Survivability=(A560-570 nm of chemotherapeutic vehicle+IB-MECA)/(mean A560-570 nm of the naïve control wells)×100. The LD50 of each chemotherapeutic agent+IB-MECA or its vehicle was calculated using three-parameter non-linear analysis using % Survivability=(A560-570 nm of chemotherapeutic+IB-MECA or its vehicle)/(mean A560-570 nm chemotherapeutic vehicle+vehicle of IB-MECA)×100. The top and bottom plateaus were constrained using GraphPad Prism v5.03 (GraphPad Software, Inc.).

In the case of CCCn1c(=O)c2[nH]c(C3CCCC3)nc2n(CCC)c1=O [DPCPX, 8-cyclopentyl-1,3-dipropylxanthine], the “effect of antagonist pretreatment on anti-allodynic effect of CI-IB-MECA or MRS1898” value (from here on “effect … of CI-IB-MECA or MRS1898”) [1] is reported as “did not prevent”, the “effect of antagonist pretreatment on anti-allodynic effect of IB-MECA” value (from here on “effect of antagonist pretreatment … of IB-MECA”) [1] is reported as “not affected” and the “effect of antagonist given alone on ipsilateral or contralateral PWT” value (“effect of antagonist given alone” for short) [1] is reported as “lacked effect”.
For CN(C)CCC=C1c2ccccc2CCc2ccccc21 [amitriptyline], the “efficacy of IB-MECA compared with this drug” value [1] was “equiefficacious”, the “effect on PWT in contralateral paws” value [1] was “had no effect” and the ED50 [1] was 31 µmol/kg. The “time of maximal reversal of mechano-allodynia” value [1] was 1 h, the “increase of potency by IB-MECA” value [1] was 2 fold and the “ED50 at peak reversal of mechano-allodynia when combined with IB-MECA” value [1] was 13 µmol/kg. For the same molecule, the “fold less potent than IB-MECA in reversing mechano-allodynia” value [1] was > 75 fold and 75 fold and the “reversal of mechano-allodynia in ipsilateral paws” value (“reversal … in ipsilateral paws” below) [1] was “dose-dependent reversal of mechano-allodynia”.
For CNC(=O)[C@H]1O[C@@H](n2cnc3c(NCc4cccc(I)c4)nc(Cl)nc32)[C@H](O)[C@@H]1O [CI-IB-MECA, 2-chloro-N^6-(3-iodobenzyl)-adenosine-5′-N-methyluronamide], the “effect on PWT in contralateral paws” value [1] was “had no effect”, the “reversal … in ipsilateral paws” value [1] was “reversed mechano-allodynia” and the “effect on paclitaxel-induced neuropathic pain” value ([2]; 0.2 μmol/kg/d (not shown)) was “completely blocked”.
For CCCOC(=O)c1c(-c2ccccc2)nc(CC)c(C(=O)SCC)c1CCC [MRS1523, 3-propyl-6-ethyl-5[(ethylthio)carbonyl]-2-phenyl-4-propyl-3-pyridine-carboxylate], the “effect … of CI-IB-MECA or MRS1898” value [1] was “blocked”, the “effect of antagonist pretreatment … of IB-MECA” value [1] was “prevented” and the “effect of antagonist given alone” value [1] was “lacked effect”. For the same molecule, the “effect on PWT when administered alone (vehicle groups)” value ([2]; IB-MECA 0.2 μmol/kg/d in any of the chemotherapy models, MRS1523 5 μmol/kg/d) was “lacked effect”, the “effect of co-administered antagonist on the effects of IB-MECA” value ([2]; MRS1523 5 μmol/kg/d with IB-MECA 0.2 μmol/kg/d) was “prevented” and the “selectivity against A1AR” value (A3ARs) was “moderate selectivity”. For the same molecule, the “selectivity against A2AAR and A2BAR” value (A3ARs) was “at least 1000 fold” and the “binding to A3ARs” value (A3ARs; murine and rat) was “high affinity”.
For COc1ccc(CCCn2ncc3c2nc(N)n2nc(-c4ccco4)nc32)cc1 [SCH-442416, 2-(2-furanyl)-7-[3-(4-methoxyphenyl)propyl]-7Hpyrazolo[4,3-e][1,2,4]triazolo[1,5-C]pyrimidin-5-amine], the “effect … of CI-IB-MECA or MRS1898” value [1] was “did not prevent”, the “effect of antagonist pretreatment … of IB-MECA” value [1] was “not affected” and the “effect of antagonist given alone” value [1] was “lacked effect”.
For N.N.O=C([O-])C1(C(=O)[O-])CCC1.[Pt+2] [carboplatin], the “incidence of CIPN” value ([3]; subjects receiving the drug) is listed as 40%.
In the case of N.N.[Cl][Pt][Cl] [cisplatin], the “incidence of CIPN” value ([3]; in vivo) is given as 70-90%.
For CC(=O)O[C@@]12CO[C@@H]1C[C@H](O)[C@@]1(C)C(=O)[C@H](O)C3=C(C)[C@@H](OC(=O)[C@H](O)[C@@H](NC(=O)OC(C)(C)C)c4ccccc4)C[C@@](O)([C@@H](OC(=O)c4ccccc4)[C@H]21)C3(C)C [docetaxel], the “incidence of CIPN” value ([3]; subjects receiving the drug) is listed as 60%.
With CC(=O)O[C@H]1C(=O)[C@@]2(C)[C@H]([C@H](OC(=O)c3ccccc3)[C@]3(O)C[C@H](OC(=O)[C@H](O)[C@@H](NC(=O)c4ccccc4)c4ccccc4)C(C)=C1C3(C)C)[C@]1(OC(C)=O)CO[C@@H]1C[C@@H]2O [Paclitaxel] the LD50 [4] was 7.0 nM.
For NCC1(CC(=O)O)CCCCC1 [gabapentin, 2-[1-(aminomethyl)cyclohexyl]acetic acid], the “efficacy of IB-MECA compared with this drug” value [1] was “equiefficacious”, the “effect on PWT in contralateral paws” value [1] was “had no effect” and the ED50 [1] was 140 µmol/kg. For the same molecule, the “time of maximal reversal of mechano-allodynia” value [1] was 1 h, the “increase of potency by IB-MECA” value [1] was greater than 5 fold and the “ED50 at peak reversal of mechano-allodynia when combined with IB-MECA” value [1] was 27 µmol/kg. The “fold less potent than IB-MECA in reversing mechano-allodynia” value [1] was greater than 350 fold and the “reversal … in ipsilateral paws” value [1] was “dose-dependent reversal of mechano-allodynia”.
With C=CCN1CC[C@]23c4c5ccc(O)c4O[C@H]2C(=O)CC[C@@]3(O)[C@H]1C5 [naloxone] the “effect of antagonist given alone” value [1] was “did not affect” and the “effect of naloxone on reversal of mechano-allodynia by A3AR agonists” value ([1]; naloxone 25 μmol/kg i.p. 15 minutes before IB-MECA or MRS1898 0.5 μmol/kg) was “did not interfere”.
